Key:
Type in all cases: cell-based
P. aeruginosa biofilms [1] = experiment: Minimum Biofilm Eradication Concentration (MBEC) method with cyan LED illumination; details: combinations in sterile water, cyan LED lamp; FIG. 4
P. aeruginosa biofilms [2] = experiment: Photo-catalytic therapy, in vitro wound biofilm model (pork belly)
S. aureus biofilms = experiment: as above; details: higher doses of RB and light, post-treatment rinse; FIG. 2

With `O=C(O)CN(CCN(CC(=O)O)CC(=O)O)CC(=O)O` [EDTA, ethylene diamine tetraacetic acid] the “effect on the action of RB and light against biofilms” value (P. aeruginosa biofilms [1]) was “potentiates the action of RB and light in a concentration-dependent manner”.
In the case of `O=C1OC2(c3cc(I)c(O)c(I)c3Oc3c2cc(I)c(O)c3I)c2c(Cl)c(Cl)c(Cl)c(Cl)c21` [Rose Bengal, 4,5,6,7-Tetrachloro-3′,6′-dihydroxy-2′,4′,5′,7′-tetriodo-3H-spiro[isobenzofuran-1,9′-xanthen]-3-one], the “biofilm removal (reduction in P. aeruginosa)” value (P. aeruginosa biofilms [2]; 25 μM RB, PCT with post-treatment rinse step, FIG. 1) is reported as 2 log, the “P. aeruginosa biofilm bacteria cell killing on raising dose” value (P. aeruginosa biofilms [2]; RB and light dose increased five-fold, no post-treatment rinse, FIG. 1 bars 2 & 4) is reported as “significantly increased reduction” and the biofilm cell reductions (S. aureus biofilms) is reported as “over 3 log10”.
For “dialkyl dimethyl ammonium chloride [DDAC]”, the “effect on the action of RB and light against biofilms” value (P. aeruginosa biofilms [1]) was “potentiates the action of RB and light in a concentration-dependent manner”.
